Source: ChEMBL document CHEMBL1130554, “BMS-200475, a novel carbocyclic 2-deoxyguanosine analog with potent and selective anti-hepatitis B virus activity in vitro” (Bioorg Med Chem Lett, 1997)

Columns and labels:
[1] = system: HepG2; assay: Tested for the effective concentration required to inhibit HBV in HepG2.2.15 human liver cells; assay type: functional, cell-based
[2] = system: WI-38; assay: Tested for effective concentration required to inhibit varicella zoster virus (VZV) in WI-38 cells; 30-60; assay type: functional, cell-based; settings: Homo sapiens
[3] = system: HFF; assay: Tested for effective concentration required to inhibit human cytomegalovirus (HCMV) in HFF cells; assay type: functional, cell-based
[4] = system: WI-38; assay: Tested for effective concentration required to inhibit herpes simplex virus type 1 (HSV-1) in WI-38 cells; assay type: functional, cell-based; settings: Homo sapiens
[5] = system: WI-38; assay: Tested for cytotoxic concentration against varicella zoster virus (VZV) in WI-38 cells; assay type: functional; settings: Homo sapiens
[6] = Tested for effective concentration required to inhibit of influenza virus in MDBK cells; assay type: functional, cell-based, Bos taurus
[7] = Tested for cytotoxic concentration against influenza virus in MDBK cells; assay type: functional; settings: Bos taurus
[8] = system: Hepatitis B virus; assay: Tested effective dose against hepatitis B virus in vitro; assay type: functional; settings: read-out: ED50 (the source's name)
[9] = system: HepG2; assay: Tested for the cytotoxicity against hepatitis B virus (HBV) in HepG2.2.15 cells; assay type: functional; settings: Homo sapiens
[10] = system: CEM-SS; assay: Tested for effective concentration to inhibit human immunodeficiency virus (HIV) in CEM-SS cells; assay type: functional, cell-based
[11] = system: WI-38; assay: Tested for cytotoxic concentration against herpes simplex virus type 1 (HSV-1) in WI-38 cells; assay type: functional; settings: Homo sapiens
[12] = system: CEM-SS; assay: Tested for cytotoxic concentration against human immunodeficiency virus (HIV) in CEM-SS cells; assay type: functional
[13] = system: Hepatitis B virus; assay: Tested for cytotoxic concentration against hepatitis B virus; assay type: functional

C=C1[C@H](CO)[C@@H](O)C[C@@H]1n1cc(C)c(=O)[nH]c1=O
EC50 [1]: > 100 µM

C=C1[C@H](CO)[C@@H](O)C[C@@H]1n1cc(I)c(=O)[nH]c1=O
EC50 [1]: 10.5 µM

C=C1[C@H](CO)[C@@H](O)C[C@@H]1n1cnc2c(N)ncnc21
EC50 [1]: 0.128 µM

Nc1nc(O)c2ncn([C@@H]3C[C@H](CO)[C@@H](O)C3)c2n1
EC50 [1]: 0.05 µM

C=C1[C@@H](CO)[C@H](O)C[C@H]1n1cnc2c(O)nc(N)nc21
EC50 [1]: 100 µM

C=C1[C@H](CO)[C@@H](O)C[C@@H]1n1cnc2c(=O)[nH]c(N)nc21 [ENTECAVIR]
EC50 [2]: 30 µM | EC50 [3]: 15 µM | EC50 [4]: ≥ 32 µM | CC50 [5]: 120 µM | EC50 [6]: > 80 µM | CC50 [7]: 78 µM | EC50 [8]: 0.003 µM | CC50 [9]: 30 µM | EC50 [1]: 0.003 µM | EC50 [10]: > 10 µM | CC50 [11]: > 90 µM | CC50 [12]: 21 µM | CC50 [13]: 21 µM

Nc1ccn([C@@H]2CS[C@H](CO)O2)c(=O)n1 [LAMIVUDINE]
EC50 [1]: 0.2 µM

Nc1nc(O)c2ncn(CCC(CO)CO)c2n1 [PENCICLOVIR]
EC50 [1]: ≥ 100 µM
